Data on 15 compounds can be found in patent US20240024488A1, “COMPOUNDS AND USES THEREOF” (Foghorn Therapeutics Inc., priority 2020, published 2024).

The target in one assay is T1, HiBit-BRM fusion protein (Homo sapiens, UniProt P51531).
T1 construct: expressed in transfected cells
The experiment in a line: HiBiT-BRM cell-based degradation assay (Nano-Glo HiBiT Lytic Detection, 24 h). Particulars: HeLa cell line expressing HiBiT-BRM; for DC50: read-out: BRM HiBit Degradation IC50. In a few lines: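 Luminescence from reconstituted NanoBiT luciferase in lysed HeLa HiBiT-BRM cells served as the measure of remaining BRM after 24 h treatment. Compounds were tested from 30 μM final downward in 3-fold steps. DMSO and 2 μM of a standard BRM/BRG1 degrader defined the scale limits.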

Assay [1] concerns the target T2, HiBit-BRG1 fusion protein (Homo sapiens, UniProt P51532).
T2 construct: expressed in transfected cells
As to the kind of experiment: HiBiT-BRG1 cell-based degradation assay (Nano-Glo HiBiT Lytic Detection, 24 h). Particulars: HeLa cell line expressing HiBit-BRG1 and LgBit; for Dmax: read-out: BRG1 HiBit Degradation Maximum (%); for DC50: read-out: BRMG1 HiBit Degradation IC50. An outline of the steps: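 Luminescence from Nano-Glo HiBiT lytic detection, read after 24 h compound exposure, scored degradation in a stable HeLa HiBiT-BRG1/LgBit line seeded at 5000 cells/well. DMSO wells defined 0% and 2 μM known BRM/BRG1 degrader wells defined full degradation.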
On the technique in general: HiBiT is a short tag that completes a luciferase, so light tracks the accessible tagged protein.

T2 sequence (P51532 whole entry, the tested form may be a part): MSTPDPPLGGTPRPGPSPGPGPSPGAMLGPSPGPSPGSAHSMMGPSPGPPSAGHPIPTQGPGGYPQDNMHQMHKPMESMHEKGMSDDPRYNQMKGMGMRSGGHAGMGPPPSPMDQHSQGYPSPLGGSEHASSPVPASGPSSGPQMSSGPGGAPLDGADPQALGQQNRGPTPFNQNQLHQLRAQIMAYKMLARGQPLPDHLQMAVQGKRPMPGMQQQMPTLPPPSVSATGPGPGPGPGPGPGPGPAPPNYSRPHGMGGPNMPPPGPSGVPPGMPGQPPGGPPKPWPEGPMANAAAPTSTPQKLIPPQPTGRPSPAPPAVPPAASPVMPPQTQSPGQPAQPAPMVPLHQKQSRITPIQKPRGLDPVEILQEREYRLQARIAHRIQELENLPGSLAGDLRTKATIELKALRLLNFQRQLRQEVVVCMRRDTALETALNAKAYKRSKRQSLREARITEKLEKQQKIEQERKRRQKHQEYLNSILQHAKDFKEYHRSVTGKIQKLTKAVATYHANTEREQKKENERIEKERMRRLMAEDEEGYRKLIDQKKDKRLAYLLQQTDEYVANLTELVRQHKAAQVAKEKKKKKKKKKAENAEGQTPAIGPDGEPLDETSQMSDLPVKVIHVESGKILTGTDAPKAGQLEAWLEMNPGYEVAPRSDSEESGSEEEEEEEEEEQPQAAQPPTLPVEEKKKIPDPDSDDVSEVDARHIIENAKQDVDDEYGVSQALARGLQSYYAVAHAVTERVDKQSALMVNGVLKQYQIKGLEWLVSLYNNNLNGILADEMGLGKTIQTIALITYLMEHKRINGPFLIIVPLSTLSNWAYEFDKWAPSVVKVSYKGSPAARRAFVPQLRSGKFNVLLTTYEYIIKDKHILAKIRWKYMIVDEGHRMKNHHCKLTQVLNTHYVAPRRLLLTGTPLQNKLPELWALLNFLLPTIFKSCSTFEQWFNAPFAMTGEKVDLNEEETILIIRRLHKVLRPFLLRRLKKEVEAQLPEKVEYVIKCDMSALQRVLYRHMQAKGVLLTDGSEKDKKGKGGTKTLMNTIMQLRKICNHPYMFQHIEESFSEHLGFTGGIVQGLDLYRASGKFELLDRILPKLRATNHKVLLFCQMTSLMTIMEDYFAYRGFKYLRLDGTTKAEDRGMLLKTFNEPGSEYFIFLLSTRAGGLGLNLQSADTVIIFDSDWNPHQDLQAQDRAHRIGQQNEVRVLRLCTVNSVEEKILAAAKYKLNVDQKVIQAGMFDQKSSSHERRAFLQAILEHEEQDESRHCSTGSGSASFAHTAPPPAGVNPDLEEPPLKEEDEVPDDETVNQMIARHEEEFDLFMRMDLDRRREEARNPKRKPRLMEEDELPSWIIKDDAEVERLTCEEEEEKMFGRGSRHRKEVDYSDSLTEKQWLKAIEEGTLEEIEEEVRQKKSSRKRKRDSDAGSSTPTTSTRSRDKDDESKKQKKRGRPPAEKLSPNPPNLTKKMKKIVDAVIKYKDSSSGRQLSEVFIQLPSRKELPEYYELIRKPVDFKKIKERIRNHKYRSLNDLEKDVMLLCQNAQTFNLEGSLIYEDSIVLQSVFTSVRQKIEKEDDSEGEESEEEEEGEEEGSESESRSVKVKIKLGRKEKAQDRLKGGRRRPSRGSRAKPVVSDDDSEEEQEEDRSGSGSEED
T1 sequence (P51531 whole entry, the tested form may be a part): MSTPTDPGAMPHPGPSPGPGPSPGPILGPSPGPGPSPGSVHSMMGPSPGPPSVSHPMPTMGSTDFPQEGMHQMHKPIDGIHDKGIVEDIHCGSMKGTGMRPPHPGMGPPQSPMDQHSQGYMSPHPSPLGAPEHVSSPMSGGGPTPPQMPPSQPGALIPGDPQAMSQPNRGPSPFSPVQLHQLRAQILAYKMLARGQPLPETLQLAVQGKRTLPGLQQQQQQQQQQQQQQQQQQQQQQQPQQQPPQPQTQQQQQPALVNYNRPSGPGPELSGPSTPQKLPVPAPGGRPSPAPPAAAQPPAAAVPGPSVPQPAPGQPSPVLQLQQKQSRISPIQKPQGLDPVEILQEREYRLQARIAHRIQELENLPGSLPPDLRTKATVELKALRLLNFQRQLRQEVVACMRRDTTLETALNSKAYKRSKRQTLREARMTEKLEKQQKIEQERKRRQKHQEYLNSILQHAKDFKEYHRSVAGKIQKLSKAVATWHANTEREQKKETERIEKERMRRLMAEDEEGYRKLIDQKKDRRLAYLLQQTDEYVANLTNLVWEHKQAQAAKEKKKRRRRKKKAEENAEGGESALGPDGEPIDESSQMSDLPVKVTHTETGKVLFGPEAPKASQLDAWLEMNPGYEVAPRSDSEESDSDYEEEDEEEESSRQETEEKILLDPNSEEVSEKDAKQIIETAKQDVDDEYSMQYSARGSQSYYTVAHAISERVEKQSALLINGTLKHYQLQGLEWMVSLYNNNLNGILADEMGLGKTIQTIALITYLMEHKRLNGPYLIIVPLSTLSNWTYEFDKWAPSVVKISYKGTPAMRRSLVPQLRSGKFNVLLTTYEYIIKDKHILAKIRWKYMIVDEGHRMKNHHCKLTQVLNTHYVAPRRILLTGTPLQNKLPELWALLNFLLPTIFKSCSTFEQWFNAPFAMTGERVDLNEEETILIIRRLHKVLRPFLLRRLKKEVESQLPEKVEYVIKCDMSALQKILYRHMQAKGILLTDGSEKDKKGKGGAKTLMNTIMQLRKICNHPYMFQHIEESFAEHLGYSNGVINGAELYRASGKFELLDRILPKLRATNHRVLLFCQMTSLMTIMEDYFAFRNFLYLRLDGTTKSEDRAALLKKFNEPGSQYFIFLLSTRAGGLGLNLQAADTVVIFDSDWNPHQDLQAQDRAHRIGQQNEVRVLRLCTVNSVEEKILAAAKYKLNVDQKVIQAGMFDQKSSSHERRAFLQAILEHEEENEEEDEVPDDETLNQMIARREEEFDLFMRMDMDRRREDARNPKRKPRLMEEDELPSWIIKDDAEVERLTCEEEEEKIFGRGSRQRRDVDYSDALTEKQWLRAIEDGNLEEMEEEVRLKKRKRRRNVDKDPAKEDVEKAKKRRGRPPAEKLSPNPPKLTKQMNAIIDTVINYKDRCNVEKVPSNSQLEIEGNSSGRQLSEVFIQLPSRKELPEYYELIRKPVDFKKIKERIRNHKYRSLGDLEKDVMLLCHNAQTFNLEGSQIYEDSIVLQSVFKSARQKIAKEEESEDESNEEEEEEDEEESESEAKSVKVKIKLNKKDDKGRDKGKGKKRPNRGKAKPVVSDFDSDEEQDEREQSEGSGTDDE

For `Cc1ncsc1-c1ccc([C@H](C)NC(=O)[C@@H]2C[C@@H](O)CN2C(=O)[C@@H](c2cc(OCCNC(=O)CN3CC(c4cc5cc(-c6ccccc6O)nnc5[nH]4)C3)no2)C(C)C)cc1` (racemic) [Compound 249, (2S,4R)-4-hydroxy-1-((R)-2-(3-(2-(2-(3-(3-(2-hydroxyphenyl)-7H-pyrrolo[2,3-c]pyridazin-6-yl)azetidin-1-yl)acetamido)ethoxy)isoxazol-5-yl)-3-methylbutanoyl)-N-((S)-1-(4-(4-methylthiazol-5-yl)phenyl)ethyl)pyrrolidine-2-carboxamide], on HiBit-BRM fusion protein, the “BRM HiBit Degradation Maximum (%)” value is listed as “A (“A” indicates maximum degradation ≥ 75%)” and the DC50 was > 100 nM. Moreover, the Dmax in assay [1] is < 50%.

Regarding `Cc1ncsc1-c1ccc([C@H](C)NC(=O)[C@@H]2C[C@@H](O)CN2C(=O)[C@@H](c2cc(OCC(=O)N3CCc4[nH]c5nnc(-c6ccccc6O)cc5c4C3)no2)C(C)C)cc1` (racemic) [Compound 194, (2S,4R)-4-hydroxy-1-((R)-2-(3-(2-(3-(2-hydroxyphenyl)-5,7,8,9-tetrahydro-6H-pyrido[3′,4′:4,5]pyrrolo[2,3-c]pyridazin-6-yl)-2-oxoethoxy)isoxazol-5-yl)-3-methylbutanoyl)-N-((S)-1-(4-(4-methylthiazol-5-yl)phenyl)ethyl)pyrrolidine-2-carboxamide], the “BRM HiBit Degradation Maximum (%)” value on HiBit-BRM fusion protein was “C (“C” indicates maximum degradation < 50%)”. For the same compound, the Dmax in assay [1] was < 50%.

Regarding `Cc1ncsc1-c1ccc([C@H](C)NC(=O)[C@@H]2C[C@@H](O)CN2C(=O)[C@@H](c2cc(OCCN3CCN(Cc4cc5cc(-c6ccccc6O)nnc5[nH]4)CC3)no2)C(C)C)cc1` (racemic) [Compound 208, (2S,4R)-4-hydroxy-1-((R)-2-(3-(2-(4-((3-(2-hydroxyphenyl)-7H-pyrrolo[2,3-c]pyridazin-6-yl)methyl)piperazin-1-yl)ethoxy)isoxazol-5-yl)-3-methylbutanoyl)-N-((S)-1-(4-(4-methylthiazol-5-yl)phenyl)ethyl)pyrrolidine-2-carboxamide], at HiBit-BRM fusion protein, the “BRM HiBit Degradation Maximum (%)” value was “A (“A” indicates maximum degradation ≥ 75%)” and the DC50 was > 10 nM. Further, the Dmax in assay [1] is < 50%.

On to `Cc1ncsc1-c1ccc([C@H](C)NC(=O)[C@@H]2C[C@@H](O)CN2C(=O)[C@@H](c2cc(OCCN3CC(CCc4cc5cc(-c6ccccc6O)nnc5[nH]4)C3)no2)C(C)C)cc1` (racemic) [Compound 244, (2S,4R)-4-hydroxy-1-((R)-2-(3-(2-(3-(2-(3-(2-hydroxyphenyl)-7H-pyrrolo[2,3-c]pyridazin-6-yl)ethyl)azetidin-1-yl)ethoxy)isoxazol-5-yl)-3-methylbutanoyl)-N-((S)-1-(4-(4-methylthiazol-5-yl)phenyl)ethyl)pyrrolidine-2-carboxamide], for which, on HiBit-BRM fusion protein, the “BRM HiBit Degradation Maximum (%)” value was “A (“A” indicates maximum degradation ≥ 75%)” and the DC50 is > 100 nM. In assay [1], the Dmax is > 50%.

With `Cc1ncsc1-c1ccc(CNC(=O)[C@@H]2C[C@@H](O)CN2C(=O)[C@@H](NC(=O)CCNC23CC(c4cc5cc(-c6ccccc6O)nnc5[nH]4)(C2)C3)C(C)(C)C)cc1` (racemic) [Compound 296], at HiBit-BRM fusion protein, the “BRM HiBit Degradation Maximum (%)” value was “A (“A” indicates maximum degradation ≥ 75%)” and the DC50 is > 1000 nM. In assay [1], the Dmax was > 50% and the DC50 is > 1000 nM.

For `Cc1ncsc1-c1ccc([C@H](C)NC(=O)[C@@H]2C[C@@H](O)CN2C(=O)[C@@H](c2cc(OCCN3CC(c4cc5cc(-c6cc(F)cc(Cl)c6O)nnc5[nH]4)C3)no2)C(C)C)cc1` (racemic) [Compound 287, (2S,4R)-1-((R)-2-(3-(2-(3-(3-(3-chloro-5-fluoro-2-hydroxyphenyl)-7H-pyrrolo[2,3-c]pyridazin-6-yl)azetidin-1-yl)ethoxy)isoxazol-5-yl)-3-methylbutanoyl)-4-hydroxy-N-((S)-1-(4-(4-methylthiazol-5-yl)phenyl)ethyl)pyrrolidine-2-carboxamide], on HiBit-BRM fusion protein, the “BRM HiBit Degradation Maximum (%)” value is given as “B (“B” indicates maximum degradation ≥ 50%)” and the DC50 was > 100 nM. The Dmax in assay [1] is < 50%.

Regarding `Cc1ncsc1-c1ccc([C@H](C)NC(=O)[C@@H]2C[C@@H](O)CN2C(=O)[C@@H](c2cc(OCCN(C)Cc3ccc(Cc4cc5cc(-c6ccccc6O)nnc5[nH]4)cc3)no2)C(C)C)cc1` (racemic) [Compound 284], at HiBit-BRM fusion protein, the “BRM HiBit Degradation Maximum (%)” value is “A (“A” indicates maximum degradation ≥ 75%)” and the DC50 is > 10 nM. For the same compound, in assay [1], the Dmax is > 75% and the DC50 is > 100 nM.

As for `CC(C)[C@@H](C(=O)N1C[C@H](O)C[C@H]1C(=O)N[C@@H](C)c1ccc(-c2ccccc2F)cc1)c1cc(OCCN2CC(c3cc4cc(-c5ccccc5O)nnc4[nH]3)C2)no1` (single isomer, unassigned) [Compound 119], on HiBit-BRM fusion protein, the “BRM HiBit Degradation Maximum (%)” value is listed as “A (“A” indicates maximum degradation ≥ 75%)” and the DC50 is > 10 nM. In assay [1], the Dmax was > 50% and the DC50 is > 1000 nM.

On to `Cc1ncsc1-c1ccc([C@H](C)NC(=O)[C@@H]2C[C@@H](O)CN2C(=O)[C@@H](c2cc(OCCN3CC(C4(C)Cc5cc(-c6ccccc6O)nnc5N4)C3)no2)C(C)C)cc1` (stereo partly drawn) [Compound 122, (2S,4R)-4-hydroxy-1-((2R)-2-(3-(2-(3-(3-(2-hydroxyphenyl)-6-methyl-6,7-dihydro-5H-pyrrolo[2,3-c]pyridazin-6-yl)azetidin-1-yl)ethoxy)isoxazol-5-yl)-3-methylbutanoyl)-N-((S)-1-(4-(4-methylthiazol-5-yl)phenyl)ethyl)pyrrolidine-2-carboxamide], for which, at HiBit-BRM fusion protein, the “BRM HiBit Degradation Maximum (%)” value is on record as “C (“C” indicates maximum degradation < 50%)”. For the same compound, in assay [1], the Dmax is > 50%.

With `Cc1ncsc1-c1ccc([C@H](C)NC(=O)[C@@H]2C[C@@H](O)CN2C(=O)[C@@H](c2cc(OCCN3CCC[C@@H](c4cc5cc(-c6ccccc6O)nnc5[nH]4)C3)no2)C(C)C)cc1` (racemic) [Compound 279, (2S,4R)-4-hydroxy-1-((R)-2-(3-(2-((R)-3-(3-(2-hydroxyphenyl)-7H-pyrrolo[2,3-c]pyridazin-6-yl)piperidin-1-yl)ethoxy)isoxazol-5-yl)-3-methylbutanoyl)-N-((S)-1-(4-(4-methylthiazol-5-yl)phenyl)ethyl)pyrrolidine-2-carboxamide], at HiBit-BRM fusion protein, the “BRM HiBit Degradation Maximum (%)” value is on record as “A (“A” indicates maximum degradation ≥ 75%)” and the DC50 is > 10 nM. Moreover, in assay [1], the Dmax was < 50%.

Consider `Cc1ncsc1-c1ccc([C@H](C)NC(=O)[C@@H]2C[C@@H](O)CN2C(=O)[C@@H](c2cc(OCCNCc3ccc(Cc4cc5cc(-c6ccccc6O)nnc5[nH]4)cc3)no2)C(C)C)cc1` (racemic) [Compound 295], for which, on HiBit-BRM fusion protein, the “BRM HiBit Degradation Maximum (%)” value is listed as “A (“A” indicates maximum degradation ≥ 75%)” and the DC50 was > 10 nM. Also, in assay [1], the Dmax is > 75% and the DC50 was > 100 nM.

As to `Cc1ncsc1-c1ccc([C@H](C)NC(=O)[C@@H]2C[C@@H](O)CN2C(=O)C(c2cc(N3CCC(C(=O)N4CC(c5c[nH]c6nnc(-c7ccccc7O)cc56)C4)CC3)no2)C(C)C)cc1` (mixture of isomers) [Compound 231, (2S,4R)-4-hydroxy-1-((S)-2-(3-(4-(3-(3-(2-hydroxyphenyl)-7H-pyrrolo[2,3-c]pyridazin-5-yl)azetidine-1-carbonyl)piperidin-1-yl)isoxazol-5-yl)-3-methylbutanoyl)-N-((S)-1-(4-(4-methylthiazol-5-yl)phenyl)ethyl)pyrrolidine-2-carboxamide], at HiBit-BRM fusion protein, the “BRM HiBit Degradation Maximum (%)” value is “A (“A” indicates maximum degradation ≥ 75%)” and the DC50 is > 100 nM. For the same compound, in assay [1], the Dmax was < 50%.

For `Cc1ncsc1-c1ccc([C@H](C)NC(=O)[C@@H]2C[C@@H](O)CN2C(=O)[C@@H](c2cc(OCCN3CCC(F)(c4cc5cc(-c6ccccc6O)nnc5[nH]4)CC3)no2)C(C)C)cc1` (racemic) [Compound 285, (2S,4R)-1-((R)-2-(3-(2-(4-fluoro-4-(3-(2-hydroxyphenyl)-7H-pyrrolo[2,3-c]pyridazin-6-yl)piperidin-1-yl)ethoxy)isoxazol-5-yl)-3-methylbutanoyl)-4-hydroxy-N-((S)-1-(4-(4-methylthiazol-5-yl)phenyl)ethyl)pyrrolidine-2-carboxamide], on HiBit-BRM fusion protein, the “BRM HiBit Degradation Maximum (%)” value is listed as “A (“A” indicates maximum degradation ≥ 75%)” and the DC50 was > 100 nM. Moreover, in assay [1], the Dmax is > 50% and the DC50 was > 100 nM.

On to `O=C1CCC(N2C(=O)c3ccc(N4CC5(CN(CCC(=O)N6CC(c7cc8cc(-c9ccccc9O)nnc8[nH]7)C6)C5)C4)cc3C2=O)C(=O)N1` (centres unmarked) [Compound 34, 2-(2,6-dioxopiperidin-3-yl)-5-(6-(3-(3-(3-(2-hydroxyphenyl)-7H-pyrrolo[2,3-c]pyridazin-6-yl)azetidin-1-yl)-3-oxopropyl)-2,6-diazaspiro[3.3]heptan-2-yl)isoindoline-1,3-dione], for which the “BRM HiBit Degradation Maximum (%)” value on HiBit-BRM fusion protein is recorded as “C (“C” indicates maximum degradation < 50%)”. The Dmax in assay [1] was < 50%.

Take `Cc1ncsc1-c1ccc(CNC(=O)[C@@H]2C[C@@H](O)CN2C(=O)[C@@H](NC(=O)CCCCCCCCC(=O)N2CC(c3cc4cc(-c5ccccc5O)nnc4[nH]3)C2)C(C)(C)C)cc1` [Compound 2, (2S,4R)-4-hydroxy-1-((S)-2-(10-(3-(3-(2-hydroxyphenyl)-7H-pyrrolo[2,3-c]pyridazin-6-yl)azetidin-1-yl)-10-oxodecanamido)-3,3-dimethylbutanoyl)-N-(4-(4-methylthiazol-5-yl)benzyl)pyrrolidine-2-carboxamide]: on HiBit-BRM fusion protein, the “BRM HiBit Degradation Maximum (%)” value is “A (“A” indicates maximum degradation ≥ 75%)” and the DC50 is > 100 nM. In addition, the Dmax in assay [1] is < 50%.
